Data on 18 molecules can be found in patent US10759781B2, “Substituted guanidine derivatives” (UBE INDUSTRIES, LTD., priority 2015, dated 2020).

The target in one assay is T1, Rat Plasma VAP-1 (Rattus norvegicus, UniProt O08590).
T1 construct: from tissue; host or cells: plasma of SD male rats (7-12 weeks old) after oral dosing
T1 sequence (O08590 28-763 limits assumed): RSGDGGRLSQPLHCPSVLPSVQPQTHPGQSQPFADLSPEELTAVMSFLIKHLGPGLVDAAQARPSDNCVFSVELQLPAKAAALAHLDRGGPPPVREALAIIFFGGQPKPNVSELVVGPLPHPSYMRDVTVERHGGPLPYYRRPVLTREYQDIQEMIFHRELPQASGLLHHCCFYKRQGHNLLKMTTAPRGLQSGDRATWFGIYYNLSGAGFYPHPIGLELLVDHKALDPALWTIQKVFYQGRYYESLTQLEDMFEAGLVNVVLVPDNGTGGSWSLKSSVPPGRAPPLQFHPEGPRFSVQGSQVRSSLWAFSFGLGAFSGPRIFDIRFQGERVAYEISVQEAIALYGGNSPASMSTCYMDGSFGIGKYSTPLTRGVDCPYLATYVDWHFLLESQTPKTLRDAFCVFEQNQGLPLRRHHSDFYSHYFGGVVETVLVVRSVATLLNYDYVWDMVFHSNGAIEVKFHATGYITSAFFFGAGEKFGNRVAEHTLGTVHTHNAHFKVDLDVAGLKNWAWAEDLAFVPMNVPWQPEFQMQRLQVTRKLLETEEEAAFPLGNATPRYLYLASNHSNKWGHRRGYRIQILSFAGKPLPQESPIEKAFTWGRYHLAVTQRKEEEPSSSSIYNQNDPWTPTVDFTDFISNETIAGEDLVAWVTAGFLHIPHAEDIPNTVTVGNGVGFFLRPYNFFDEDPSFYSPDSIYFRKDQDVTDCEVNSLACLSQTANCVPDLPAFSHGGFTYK
The assay can be described thus: (Ex vivo) rat plasma VAP-1 inhibition test after oral administration of the compound. It is filed as in vivo. As to conditions: 3 hours after oral administration, SD male rats, read-out: inhibition ratio (plasma VAP-1, ex vivo). The method, then:
(Ex Vivo) Rat Plasma VAP-1 Inhibition Test after Oral Administration of the Compound
The compound was orally administered (0.3-10 mg/kg) to 7-12 week old SD male rats in the non-fasting state. Under anesthesia, the blood was collected in heparin tubes from the jugular vein before the administration and 3, 8 and 24 hours after the administration. The blood was centrifuged at 14000 rpm for 10 minutes to get plasma. The VAP-1 enzyme activity in the plasma was measured by radiochemical enzyme assay.
The radiochemical enzyme assay was conducted by modifying the method of P. H. Yu et al. (Diabetologia 40 1243 (1997)). ^14C-benzylamine (2.5 μM) was added to the obtained plasma, and was incubated at 37° C. for 3 hours. The reaction was terminated by the addition of 100 μL of 2 M citric acid solution to the reaction solution. The oxidative product was extracted using a toluene/ethyl acetate mixture and the radioactivity was measured with a liquid scintillation counter. The inhibition ratio of the compound was calculated using the following equation. Inhibition ratio={1−[Plasma VAP-1 activity after administration of the compound]/[Plasma VAP-1 activity before administration]}×100

In the next assay the target is T2, Human VAP-1 enzyme (Homo sapiens, UniProt Q16853).
T2 construct: purchased R&D Systems, Inc
T2 sequence (Q16853 1-763): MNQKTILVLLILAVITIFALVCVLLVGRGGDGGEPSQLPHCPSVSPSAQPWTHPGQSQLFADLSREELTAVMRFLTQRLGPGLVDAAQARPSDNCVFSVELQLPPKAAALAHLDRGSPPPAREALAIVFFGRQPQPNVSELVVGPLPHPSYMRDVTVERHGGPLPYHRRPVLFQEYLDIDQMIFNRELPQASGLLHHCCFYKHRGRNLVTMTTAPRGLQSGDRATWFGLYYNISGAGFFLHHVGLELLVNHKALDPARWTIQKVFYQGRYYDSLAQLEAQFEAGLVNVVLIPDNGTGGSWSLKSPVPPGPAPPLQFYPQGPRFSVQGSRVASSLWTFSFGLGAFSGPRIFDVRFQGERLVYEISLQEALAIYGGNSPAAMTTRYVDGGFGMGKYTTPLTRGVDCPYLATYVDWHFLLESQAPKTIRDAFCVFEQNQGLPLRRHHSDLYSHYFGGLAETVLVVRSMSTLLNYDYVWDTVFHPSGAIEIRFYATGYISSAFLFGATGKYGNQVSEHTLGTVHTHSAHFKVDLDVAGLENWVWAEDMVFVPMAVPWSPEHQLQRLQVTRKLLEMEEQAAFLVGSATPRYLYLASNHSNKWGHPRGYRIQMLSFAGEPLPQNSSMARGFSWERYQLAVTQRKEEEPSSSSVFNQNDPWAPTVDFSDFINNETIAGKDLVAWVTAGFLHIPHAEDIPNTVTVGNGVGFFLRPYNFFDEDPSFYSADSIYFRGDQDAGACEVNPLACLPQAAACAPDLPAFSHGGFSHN
The assay can be described thus: Human VAP-1 enzyme inhibition test. It is filed as biochemical. The following applies: 1 h; compound 30 nM; 14C-benzylamine 100 μM; read-out: inhibition ratio (human VAP-1 enzyme). The method, boiled down:
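Activity measured as radioactive oxidation product of 14C-benzylamine (100 μM final), extracted with toluene/ethyl acetate after citric acid stop and scintillation-counted. Enzyme (recombinant human VAP-1) first exposed to compound 20 min at room temperature, reaction then 1 h at 37 °C. Percent inhibition versus DMSO control.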

Counter-ions that a name gives are not always drawn. Bounds are passed on as bounds.

For the molecule `N=C(N)NC(=O)OCc1cccc(-c2cnc(N3CCC(=NOCC(CO)CO)CC3)nc2)c1F` [Example 97, 2-Fluoro-3-[2-(4-{[3-hydroxy-2-(hydroxymethyl)propoxy]imino}piperidin-1-yl)pyrimidin-5-yl]benzyl carbamimidoylcarbamate], the inhibition in vivo at 0.3 mg/kg at Rat Plasma VAP-1 is no less than 50%. For the same molecule, the inhibition at 0.03 µM at Human VAP-1 enzyme was no less than 50%.

Take `CC(CO)(CO)CON=C1CCN(c2ncc(-c3cccc(COC(=O)NC(=N)N)c3F)cn2)CC1` [Example 98, 2-Fluoro-3-[2-(4-{[3-hydroxy-2-(hydroxymethyl)-2-methylpropoxy]imino}piperidin-1-yl)pyrimidin-5-yl]benzyl carbamimidoylcarbamate]: the inhibition in vivo at 0.3 mg/kg on Rat Plasma VAP-1 is no less than 50%. Also, the inhibition at 0.03 µM at Human VAP-1 enzyme is no less than 50%.

Regarding `N=C(N)NC(=O)OCc1cccc(-c2cnc(N3CCC(=NOCC(O)CO)CC3)nc2)c1F` (stereo not drawn) [Example 99, 3-(2-{4-[(2,3-Dihydroxypropoxy)imino]piperidin-1-yl}pyrimidin-5-yl)-2-fluorobenzyl carbamimidoylcarbamate], the inhibition in vivo at 0.3 mg/kg at Rat Plasma VAP-1 is no less than 50%. The inhibition at 0.03 µM at Human VAP-1 enzyme was no less than 50%.

Regarding `COC(CO)CON=C1CN(c2ncc(-c3cccc(COC(=O)NC(=N)N)c3F)cn2)C1` (stereo not drawn) [Example 101, 2-Fluoro-3-(2-{3-[(3-hydroxy-2-methoxypropoxy)imino]azetidin-1-yl}pyrimidin-5-yl)benzyl carbamimidoylcarbamate], on Rat Plasma VAP-1, the inhibition in vivo at 0.3 mg/kg was no less than 50%. For the same molecule, the inhibition at 0.03 µM on Human VAP-1 enzyme is no less than 50%.

As to `N=C(N)NC(=O)OCc1cccc(-c2cnc(N3CCC(=NO)CC3)nc2)c1F` [Example 105, 2-Fluoro-3-{2-[4-(hydroxyimino)piperidin-1-yl]pyrimidin-5-yl}benzyl carbamimidoylcarbamate hydrochloride], the inhibition in vivo at 0.3 mg/kg on Rat Plasma VAP-1 was no less than 50%. Further, the inhibition at 0.03 µM at Human VAP-1 enzyme is no less than 50%.

Consider `N=C(N)NC(=O)OCc1cccc(-c2cnc(N3CCC(=NOCCC(N)=O)CC3)nc2)c1F` [Example 150, 3-(2-{4-[(3-Amino-3-oxopropoxy)imino]piperidin-1-yl}pyrimidin-5-yl)-2-fluorobenzyl carbamimidoylcarbamate], for which, at Rat Plasma VAP-1, the inhibition in vivo at 0.3 mg/kg was no less than 50%. On Human VAP-1 enzyme, the inhibition at 0.03 µM is no less than 50%.

For `CNC(=O)CCON=C1CCN(c2ncc(-c3cccc(COC(=O)NC(=N)N)c3F)cn2)CC1` [Example 151, 2-Fluoro-3-[2-(4-{[3-(methylamino)-3-oxopropoxy]imino}piperidin-1-yl)pyrimidin-5-yl]benzyl carbamimidoylcarbamate], the inhibition in vivo at 0.3 mg/kg at Rat Plasma VAP-1 was no less than 50%. Besides, the inhibition at 0.03 µM at Human VAP-1 enzyme is no less than 50%.

For the molecule `N=C(N)NC(=O)OCc1cccc(-c2cnc(N3CCC(=NOCCCC(=O)O)CC3)nc2)c1F` [Example 153, 4-[({1-[5-(3-{[(Carbamimidoylcarbamoyl)oxy]methyl}-2-fluorophenyl)pyrimidin-2-yl]piperidin-4-ylidene}amino)oxy]butanoic acid], the inhibition in vivo at 0.3 mg/kg at Rat Plasma VAP-1 was no less than 50%. On Human VAP-1 enzyme, the inhibition at 0.03 µM is no less than 50%.

Consider `CN(C)C(=O)CCON=C1CCN(c2ncc(-c3cccc(COC(=O)NC(=N)N)c3F)cn2)CC1` [Example 154, 3-[2-(4-{[3-(Dimethylamino)-3-oxopropoxy]imino}piperidin-1-yl)pyrimidin-5-yl]-2-fluorobenzyl carbamimidoylcarbamate], for which, on Rat Plasma VAP-1, the inhibition in vivo at 0.3 mg/kg was no less than 50%. Moreover, the inhibition at 0.03 µM on Human VAP-1 enzyme was no less than 50%.

In the case of `CC(=O)NCCON=C1CCN(c2ncc(-c3cccc(COC(=O)NC(=N)N)c3F)cn2)CC1` [Example 155, 3-(2-{4-[(2-Acetamidoethoxy)imino]piperidin-1-yl}pyrimidin-5-yl)-2-fluorobenzyl carbamimidoylcarbamate], at Rat Plasma VAP-1, the inhibition in vivo at 0.3 mg/kg was no less than 50%. For the same molecule, the inhibition at 0.03 µM on Human VAP-1 enzyme is no less than 50%.

`CC(=O)N(C)CCON=C1CCN(c2ncc(-c3cccc(COC(=O)NC(=N)N)c3F)cn2)CC1` [Example 156, 2-Fluoro-3-[2-(4-{[2-(N-methylacetamido)ethoxy]imino}piperidin-1-yl)pyrimidin-5-yl]benzyl carbamimidoylcarbamate]: the inhibition in vivo at 0.3 mg/kg at Rat Plasma VAP-1 is no less than 50%. Further, the inhibition at 0.03 µM at Human VAP-1 enzyme is no less than 50%.

Turning to `CS(=O)(=O)NCCON=C1CCN(c2ncc(-c3cccc(COC(=O)NC(=N)N)c3F)cn2)CC1` [Example 159, 2-Fluoro-3-[2-(4-{[2-(methylsulfonamido)ethoxy]imino}piperidin-1-yl)pyrimidin-5-yl]benzyl carbamimidoylcarbamate], the inhibition in vivo at 0.3 mg/kg at Rat Plasma VAP-1 is no less than 50%. Moreover, the inhibition at 0.03 µM at Human VAP-1 enzyme is no less than 50%.

Turning to `N#CCCON=C1CCN(c2ncc(-c3cccc(COC(=O)NC(=N)N)c3F)cn2)CC1` [Example 165, 3-(2-{4-[(2-Cyanoethoxy)imino]piperidin-1-yl}pyrimidin-5-yl)-2-fluorobenzyl carbamimidoylcarbamate], the inhibition in vivo at 0.3 mg/kg at Rat Plasma VAP-1 was no less than 50%. For the same molecule, at Human VAP-1 enzyme, the inhibition at 0.03 µM is no less than 50%.

On to `N#CCCCON=C1CCN(c2ncc(-c3cccc(COC(=O)NC(=N)N)c3F)cn2)CC1` [Example 166, 3-(2-{4-[(3-Cyanopropoxy)imino]piperidin-1-yl}pyrimidin-5-yl)-2-fluorobenzyl carbamimidoylcarbamate], for which the inhibition in vivo at 0.3 mg/kg at Rat Plasma VAP-1 is no less than 50%. In addition, the inhibition at 0.03 µM at Human VAP-1 enzyme was no less than 50%.

On to `CS(=O)(=O)CCON=C1CCN(c2ncc(-c3cccc(COC(=O)NC(=N)N)c3F)cn2)CC1` [Example 167, 2-Fluoro-3-[2-(4-{[2-(methylsulfonyl)ethoxy]imino}piperidin-1-yl)pyrimidin-5-yl]benzyl carbamimidoylcarbamate], for which the inhibition in vivo at 0.3 mg/kg on Rat Plasma VAP-1 was no less than 50%. Besides, the inhibition at 0.03 µM at Human VAP-1 enzyme was no less than 50%.

Regarding `CS(=O)(=O)CCCON=C1CCN(c2ncc(-c3cccc(COC(=O)NC(=N)N)c3F)cn2)CC1` [Example 168, 2-Fluoro-3-[2-(4-{[3-(methylsulfonyl)propoxy]imino}piperidin-1-yl)pyrimidin-5-yl]benzyl carbamimidoylcarbamate], the inhibition in vivo at 0.3 mg/kg at Rat Plasma VAP-1 was no less than 50%. Further, on Human VAP-1 enzyme, the inhibition at 0.03 µM was no less than 50%.

As for `Cn1ccc(CON=C2CCN(c3ncc(-c4cccc(COC(=O)NC(=N)N)c4F)cn3)CC2)n1` [Example 169, 2-Fluoro-3-[2-(4-{[(1-methyl-1H-pyrazol-3-yl)methoxy]imino}piperidin-1-yl)pyrimidin-5-yl]benzyl carbamimidoylcarbamate], the inhibition in vivo at 0.3 mg/kg on Rat Plasma VAP-1 is no less than 50%. For the same molecule, the inhibition at 0.03 µM on Human VAP-1 enzyme was no less than 50%.

As for `N=C(N)NC(=O)OCc1cccc(-c2cnc(N3CCC(=NOCc4cc[nH]n4)CC3)nc2)c1F` [Example 171, 3-[2-(4-{[(1H-pyrazol-3-yl)methoxy]imino}piperidin-1-yl)pyrimidin-5-yl]-2-fluorobenzyl carbamimidoylcarbamate], on Rat Plasma VAP-1, the inhibition in vivo at 0.3 mg/kg is no less than 50%. Also, the inhibition at 0.03 µM on Human VAP-1 enzyme is no less than 50%.
